Measured values from patent publication US6803226B2, “Method of forming an artificial Shiro of Matsutake” (The University of Tokyo, priority 2001, dated 2004).

Test system: Matsutake hyphae (strain Tm 89)
Assay: Growth of Matsutake hyphae in soil containing Tween 80 additive, determined by ergosterol amount
Assay type: cell-based, Tricholoma Matsutake
Settings: Tween 80 additive 1, 2 or 5 wt % vs 0 wt %, 20 wt % of soil, one month incubation at 25±1° C. in the dark, FIG. 1
Experimental: The culture substrate containing an active principle prepared as described above is put into a sterile container (a Petri-dish, etc.). A hypha solution containing Matsutake hyphae is inoculated into the culture substrate in the sterile container such that the hypha solution is spread throughout the culture substrate. Culture of Matsutake hyphae can be performed at 25±1° C. in the dark. After 1 to 3 month's culture of Matsutake hyphae, a piece of the grown hyphae (i.e., a Shiro) are taken as a sample, and the growth amount of the hyphae is determined based on the amount of ergosterol. Ergosterol can be quantified as follows. After a sample of a Shiro is freeze-dried (EYELA, FDU-830), 1 g of the sample is taken and extracted with 2.5 mL of ethanol (99.5%). The obtained extract is loaded into HPLC (high-performance liquid chromatography; HITACHI, Column L-7300; UV Detector L-7400; Autosampler L-7200; Pump L-7100; Integrator D-7500) to quantify the amount of ergosterol in the extract. With respect to the details of the quantification procedure, reference should be made to Martin et al. (1990) Mycol. Res. 94: 1059-1064. About one week after the initiation of the culture, it is observed that the hyphae are grown on the surface of the culture substrate. About 4 weeks after the initiation of the culture, increase in the growth amount of the hyphae is found. […]

CCCCCCCC/C=C\CCCCCCCC(=O)OCCOCC(OCCO)C1OCC(OCCO)C1OCCO (stereo not shown) [Tween 80, Polyoxyethylene (20) Sorbitan Monooleate]
growth of Matsutake hyphae (amount of ergosterol): significantly enhanced
